Measurements taken from patent US8592421B2, “Cyclic bioisosters of purine system derivatives and a pharmaceutical composition based thereon” (priority 2003, dated 2013).

Columns and labels:
thrombocytes = assay: ADP-induced aggregation of thrombocytes after intravenous administration (in vivo); design: species or system rabbit
Protocol: The experiments were carried out on male rabbits of the “Chinchilla” breed having a mass of 2.7±0.3 kg. 18-24 hours prior to the experiment they were deprived of feed while preserving free access to water.
To obtain plasma enriched with thrombocytes, blood was taken from a cut of a marginal vein of the rabbit ear, the sample was stabilized with 3.8% of sodium citrate solution in a ratio of 9:1 and centrifuged at 200 g (1000 rev/min) for 10 minutes. The top supernatant layer enriched with thrombocytes was transferred by an automatic dropper into a silicone test tube and kept at 37° C. The plasma enriched with thrombocytes contained, on the average, […]. If this content exceeded the specified 3×10^8 blood platelets in 1 liter, this sample was diluted to the necessary concentration with plasma deprived of thrombocytes, which was obtained by centrifuging blood at 650 g during 10 minutes.
The measurements of the optical density of the samples were made on two-channel aggregometer of the “Chronolog” Company (USA). A flask containing 490 mkl of plasma rich with thrombocytes was placed in a device, into which a magnetic agitator covered with Teflon was lowered. The index of maximum amplitude of aggregation (MA) in percent of a fall of the plasma optical density under effect of the aggregation inductor was recorded. The control index MA of plasma was compared with the MA of plasma incubated for 3 minutes with different concentrations of the compounds: from 10^−3 to 10^−7 in vitro experiments or with plasma obtained 15, 30, 60 and 120 minutes after intravenous administration of different doses of the compounds in vivo experiments.
The process of aggregation of thrombocytes was recorded with the help of a computer; on the monitor screen the there were depicted curves reflecting changes of the optical density of the plasma enriched which was taken as a standard 100% compared to the optical density of the non-thrombocyte plasma taken for 0% content of thrombocytes.
The antiaggregative capability of compounds 2, 15, 21, 37, according to the invention was tested in experiments in vivo. Introduced to the test animals intravenously were an aggregation inductor ADP at a concentration of 10^−5 M was and then the compounds according to the invention. The doses of the compounds were in a range from 15 to 60 mg/kg.
For leveling the different effects of the compounds in different days due the ambient temperature, humidity and other parameters, 2 animals of each series were taken for experiments every day. Under “series” there is understood a group of 6 animals used for studying one of the doses of the compounds.
The blood for obtaining plasma enriched with thrombocytes was taken from marginal vein of the rabbit ear: in the control group—directly before introducing the tested compounds; in investigated groups—15 minutes after introducing these compounds and then after 30, 60, 120 minutes and so on up to the moment when the effect of suppression of aggregation disappeared.
The quantity of thrombocytes was counted before the experiment and at the end thereof in each plasma sample.

[1] = tested on: adenosine-sensitive receptors of erythrocytes; assay: Interaction with adenosine-sensitive receptors of erythrocytes (chemiluminescence of bound compound, adenosine competition); assay type: binding, mice of line BALB/c; conditions: incubation at 37° C. vs 4° C., 10^−7 to 10^−5 M
Protocol: The interaction of compounds 2, 15, 21, 37 according to the invention with adenosine-sensitive receptors of erythrocytes of female mice of line BALB/c of an age of 8-12 months was investigated.
The dependence of the chemiluminescence intensity of the compounds according to the invention in an alkaline solution of 0.1N NaOH was determined in the presence of hydrogen peroxide being an initiator of chemiluminescence. The chemiluminescence was studied using the <<LKB>> chemiluminometer.
The erythrocytes of peripheral blood of the mice at first were washed three times by a normal physiological solution with centrifuging and then diluted in the Henks solution without glucose by 10 volumes of distilled water immediately used in the experiment.
At the first stage of the experiments the washed erythrocytes were incubated at a temperature of 37° C. or at 4° C. with solutions of the compounds according to the invention at a concentration of 10^−7 to 10^−5 M for 5-30 minutes, then washed by a normal physiological solution with repeated centrifuging in the cold. The obtained suspension of erythrocytes with the bound compounds according to the invention was placed in 0.1N solution of NaOH with addition of hydrogen peroxide at a final concentration of 10^−7 M. The chemiluminescence intensity was measured. A suspension of erythrocytes without compounds according to the invention was used as a control medium.
At the second stage of the experiments the washed erythrocytes were incubated at a temperature of 37° C. with solutions of the compounds according to the invention at a concentration of 10^−11 to 10^−8 M during 5-30 minutes, then washed twice with a normal physiological solution by centrifuging in the cold, the obtained suspension was mixed with an adenosine solution at a concentration of 10^−6 to 10^−4 and incubated for 15 minutes, then washed twice with a normal physiological solution with centrifuging in the cold. The obtained suspension of erythrocytes with the compounds according to the invention was placed in 0.1N solution of NaOH with addition of hydrogen peroxide in the final concentration of 10^−7 M. The chemiluminescence intensity was measured.

[2] = 15.0 mg/kg intravenously, after 15 minutes, control 50.1 ± 1.7
[3] = 15.0 mg/kg intravenously, after 30 minutes, control 50.1 ± 1.7
[4] = 15.0 mg/kg intravenously, after 60 minutes, control 50.1 ± 1.7
[5] = 15.0 mg/kg intravenously, after 120 minutes, control 50.1 ± 1.7
[6] = 30.0 mg/kg intravenously, after 15 minutes, control 61.0 ± 1.3
[7] = 30.0 mg/kg intravenously, after 30 minutes, control 61.0 ± 1.3
[8] = 30.0 mg/kg intravenously, after 60 minutes, control 61.0 ± 1.3
[9] = 30.0 mg/kg intravenously, after 120 minutes, control 61.0 ± 1.3
[10] = 60.0 mg/kg intravenously, after 15 minutes, control 48.6 ± 1.3
[11] = 60.0 mg/kg intravenously, after 30 minutes, control 48.6 ± 1.3
[12] = 60.0 mg/kg intravenously, after 60 minutes, control 48.6 ± 1.3
[13] = 60.0 mg/kg intravenously, after 120 minutes, control 48.6 ± 1.3

SMILES	MA - drop of optical density (thrombocytes; [2])	MA - drop of optical density (thrombocytes; [3])	MA - drop of optical density (thrombocytes; [4])	MA - drop of optical density (thrombocytes; [5])	MA - drop of optical density (thrombocytes; [6])	MA - drop of optical density (thrombocytes; [7])	MA - drop of optical density (thrombocytes; [8])	MA - drop of optical density (thrombocytes; [9])	MA - drop of optical density (thrombocytes; [10])	MA - drop of optical density (thrombocytes; [11])	MA - drop of optical density (thrombocytes; [12])	MA - drop of optical density (thrombocytes; [13])	dependence of the bond with erythrocytes on temperature [1]
Nc1ccnc2c(=O)n([C@@H]3O[C@H](CO)[C@@H](O)[C@H]3O)[nH]c(=O)c12 [Compound 2, 4-amino-7-(β-D-ribofuranosile)pyrido[2,3-d]-6H-pyridazine-5,8-dione]	44.2 ± 2.0 %	42.2 ± 1.6 %	46.9 ± 1.7 %	49.2 ± 2.0%	45.3 ± 2.0 %	43.7 ± 1.7 %	40.1 ± 2.2 %	59.7 ± 2.2%	45.2 ± 1.2 %	43.6 ± 2.0 %	47.8 ± 1.5%	48.0 ± 1.2%	does not depend on the temperature
Nc1cccc2c(=O)[nH][nH]c(=O)c12.[Na] [Compound 15, sodium salt of 5-amino-benzo[d]-3H-pyridazine-1,4-dione]	42.8 ± 1.8 %	41.8 ± 1.5 %	45.6 ± 1.5 %	48.3 ± 2.3 %	43.2 ± 2.2 %	41.8 ± 1.9 %	37.8 ± 1.8 %	58.1 ± 1.7%	43.1 ± 1.5 %	41.3 ± 1.5 %	44.7 ± 0.8%	47.2 ± 1.6%	does not depend on the temperature
Nc1cnc2c(=O)n([C@@H]3O[C@H](CO)[C@@H](O)[C@H]3O)[nH]c(=O)c2n1.[Na] [Compound 21, sodium salt of 3-amino-7-(β-D-ribofuranosile)pyrazine[2,3-d]-6H-pyridazine-5,8-dione]	43.5 ± 1.7 %	43.3 ± 1.7 %	46.7 ± 1.5 %	49.1 ± 1.7%	46.7 ± 1.9 %	45.4 ± 1.8 %	45.0 ± 1.9%	60.3 ± 2.1%	45.1 ± 0.9 %	43.2 ± 2.0 %	47.3 ± 1.6%	48.3 ± 1.5%	does not depend on the temperature
O=c1[nH][nH]c(=O)c2c(Br)ncnc12.[K] [Compound 37, potassium salt of 4-bromine-pyrimido[4,5-D]-6H-pyridazine-5,8-dione]	42.9 ± 1.6 %	41.9 ± 1.6 %	45.9 ± 1.6%	48.7 ± 2.1%	43.5 ± 2.0 %	42.0 ± 1.4 %	41.6 ± 1.4 %	58.4 ± 1.7%	43.4 ± 1.8 %	42.4 ± 0.7 %	46.2 ± 2.0%	47.3 ± 1.7%	does not depend on the temperature
